Measurements reported in PMC8694140, “Synthesis and photobiological applications of naphthalimide–benzothiazole conjugates: cytotoxicity and topoisomerase IIα inhibition” (RSC Advances, 2021).
Read-outs that look alike come from different tables or passages of the source.

Legend:
[1] = test system: MCF7 (breast) human cancer cell line; experiment: MTT cytotoxicity assay, MCF7; type: cell-based; conditions: Homo sapiens, MCF7, 48 h
Method: Human malignant cell lines, i.e., MCF7 (breast), HeLa (cervix), and A549 (lung), as well as non-cancerous human cell line Hek293 (kidney), were cultured using the Ham's media or DMEM having 10% FBS, […] streptomycin, 100 U ml^−1 penicillin, and 50 mM glutamine. For seeding of cells, 96 well plates were used, maintaining the density of […] cells per well with the help of DMEM as a media having 10% FBS cells. Then, seeded cells were incubated in an incubator having a 5% CO2 supply at 37 °C. Compounds were added to the wells at 1, 10, and 100 μM concentrations, and cells were incubated for 48 h at 37 °C and then added 10 μl of MTT to each well prepared from 5 mg ml^−1 stock solution using 1 × PBS buffer and were incubated for 4 h at 37 °C in the dark. DMSO (100 μl) was used to dissolve the formazan crystals. To determine the concentration of formazan, the crystal absorbance difference was recorded at 570 nm. The percentage of relative cell toxicity was calculated by using the following eqn (1):1 [drawing 1]

[2] = biological target: T1, human serum albumin (HSA) (Homo sapiens, UniProt P02768); experiment: HSA fluorescence quenching (Stern–Volmer, modified Stern–Volmer, van't Hoff); type: binding; conditions: for Kd: read-out: K b (binding constant, modified Stern–Volmer) (converted); for quenching of emission of HSA at 347 nm: HSA 10 μM, compound up to 33 μM, λex 280 nm; for ΔH of HSA binding / ΔS of HSA binding: van't Hoff plot, 298–318 K
T1 sequence (P02768 25-609): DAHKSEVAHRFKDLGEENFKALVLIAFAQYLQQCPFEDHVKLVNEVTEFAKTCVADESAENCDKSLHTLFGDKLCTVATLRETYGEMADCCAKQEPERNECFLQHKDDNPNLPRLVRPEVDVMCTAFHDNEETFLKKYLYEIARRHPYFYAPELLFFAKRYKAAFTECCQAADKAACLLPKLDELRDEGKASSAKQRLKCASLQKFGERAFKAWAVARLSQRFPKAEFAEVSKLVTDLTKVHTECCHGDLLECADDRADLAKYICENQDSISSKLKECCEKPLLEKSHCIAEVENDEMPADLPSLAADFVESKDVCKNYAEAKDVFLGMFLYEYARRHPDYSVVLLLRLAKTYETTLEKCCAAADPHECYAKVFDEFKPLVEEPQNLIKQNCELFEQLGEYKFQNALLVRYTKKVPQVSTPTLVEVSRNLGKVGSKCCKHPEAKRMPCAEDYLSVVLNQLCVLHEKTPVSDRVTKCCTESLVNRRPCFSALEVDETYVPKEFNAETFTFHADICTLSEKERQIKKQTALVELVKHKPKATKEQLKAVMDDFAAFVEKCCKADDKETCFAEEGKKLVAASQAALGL
Method: The binding of compounds to HSA can affect the fluorescence of these fluorophores.[34–36] […] Incremental addition of compounds 12 and 13 (33 μM) led to good quenching (90–95%) of emission of HSA at 347 nm (Fig. 5, S58, and S59 ^†), which indeed indicated the binding of compounds to HSA. Fluorescence quenching data have been analyzed using the Stern–Volmer equation eqn (3)[38] at three different temperatures, i.e., 298 K, […], and 318 K, where Stern–Volmer plots were obtained (Fig. S60 and S61 ^†). Good linearity of plots was observed having a correlation coefficient (R) ≥ 0.9396 throughout all the experiments. The values of the Stern–Volmer quenching constant (KSV), a measure of fluorescence quenching efficiency of the analyte, were calculated from these plots and are reported in Table 2. The fluorescence quenching mechanism, whether dynamic or static quenching, can be investigated using the dependency of KSV values on temperature. […] Thus, the detected quenching in fluorescence of HSA on the addition of compounds 12 and 13 appears as a result of complex formation between compound and HSA. […] Thus, in the present study, the static quenching phenomenon has occurred in the quenching process for represented HSA–compound systems.
To record the emission spectra, a fixed amount of HSA (10 μM) was titrated with increasing concentration of compounds 12 and 13 (33 μM) in phosphate buffer of pH 7.4 at 298 K, 308 K, and 318 K. All spectra were recorded in the range of 200–800 nm at excitation wavelength 280 nm and a constant slit width was used for excitation and emission throughout the experiments.
To determine the quenching constant, following Stern–Volmer eqn (3) was used.3 [drawing 3] where, F0 and F denote the emission intensity of HSA in free form and the presence of compounds 12 and 13, respectively. The plots of F0/F versus [compound] were used to determine the Stern–Volmer quenching constants (KSV) and bimolecular quenching constants (Kq).
Further to determine the binding constants (Kb) and the average number of binding sites (n), the following modified Stern–Volmer eqn (4) was used.4 [drawing 4] where F0 and F are the same as in eqn (3). The values of Kb and n were determined from intercept and slope, respectively, as log{(F0 − F)/F versus log[compound]} plots.
The thermodynamic parameters such as the change in enthalpy (ΔH) and change in entropy (ΔS) were determined by following the van't Hoff eqn (5):5 [drawing 5] R and T denote the gas constant and absolute temperature, respectively.
The change in free energy (ΔG) for various temperatures was determined by the following eqn (6):6 ΔG = ΔH − TΔS

[3] = biological target: T1, human serum albumin (HSA); experiment: Excited-state fluorescence lifetime of HSA; type: binding; conditions: compound 7 μM
Method: A fluorescence lifetime experiment was performed to discover the quenching mechanism of compounds 12 and 13 for interactions with HSA. The decay lifetime (τ) generally remains unaltered in ground state quenching while it gets changed in excited state quenching.[46,47] The fluorescence lifetime spectrum of HSA (7 μM) was performed upon increasing concentrations of compounds 12 and 13 (0–70 μM) (Fig. S65 ^†). […] Therefore, it can conclude that the fluorescence quenching of HSA by compounds 12 and 13 was characterized as a static quenching and thus formed a stable complex with HSA at the ground state.
Time-resolved fluorescence was recorded by taking a fixed amount of HSA (10 μM) with incremental additions of compounds (12 and 13) ([…]) by maintaining the ratio of HSA : compound = 1 : 0, 1 : 1, 1 : 5 and 1 : 10. The spectra were recorded at 345 nm emission wavelength in phosphate buffer of pH 7.4 at 298 K. To determine the average fluorescence lifetime (τ), the following eqn (7) was used.7 τ = ∑τiαiwhere τi and αi denote decay time and relative amplitude, respectively.

[4] = biological target: T1, human serum albumin (HSA); experiment: Excited-state fluorescence lifetime of HSA; type: binding

C=CCn1cc(-c2nc3ccccc3s2)c2cc(-c3ccc4c5c(cccc35)C(=O)N(CCO)C4=O)ccc21 [Compound 12, 6-(1-Allyl-3-(benzo[d]thiazol-2-yl)-1H-indol-5-yl)-2-(2-hydroxyethyl)-1H-benzo[de]isoquinoline-1,3(2H)-dione]
IC50 [1]: 3.81 ± 0.19 µM | K SV (Stern–Volmer quenching constant) ([2]; 298 K): 10.46 10^6 M^−1 | K q (bimolecular quenching rate constant) ([2]; 298 K): 10.46 10^14 M^−1 s^−1 | n (average number of binding sites) ([2]; 298 K): 1.32 | ΔG of HSA binding ([2]; 298 K): -9.27 kJ/M | Kd ([2]; 298 K): 136 nM | Kd ([2]; 308 K): 658 nM | K SV (Stern–Volmer quenching constant) ([2]; 318 K): 1.27 10^6 M^−1 | K q (bimolecular quenching rate constant) ([2]; 318 K): 1.27 10^14 M^−1 s^−1 | n (average number of binding sites) ([2]; 318 K): 1.30 | ΔG of HSA binding ([2]; 318 K): -8.46 kJ/M | Kd ([2]; 318 K): 1190 nM | quenching of emission of HSA at 347 nm [2]: 90–95% | ΔH of HSA binding [2]: -21.32 kJ/M | ΔS of HSA binding [2]: −40.44 J M^−1 K^−1 | α 1 of HSA fluorescence decay [3]: 0.42 | α 2 of HSA fluorescence decay [3]: 0.20 | α 3 of HSA fluorescence decay [3]: 0.38 | τ 3 of HSA fluorescence decay [3]: 0.80 ns | τ (average fluorescence lifetime of HSA) [3]: 3.13 ns | τ 1 of HSA fluorescence decay ([4]; compound 7 μM): 3.29 ns | τ 2 of HSA fluorescence decay ([4]; compound 7 μM): 7.32 ns | α 1 of HSA fluorescence decay ([4]; compound 35 μM): 0.41 | α 2 of HSA fluorescence decay ([4]; compound 35 μM): 0.18 | α 3 of HSA fluorescence decay ([4]; compound 35 μM): 0.40 | τ 1 of HSA fluorescence decay ([4]; compound 35 μM): 3.37 ns | τ 2 of HSA fluorescence decay ([4]; compound 35 μM): 7.34 ns | τ 3 of HSA fluorescence decay ([4]; compound 35 μM): 0.86 ns | τ (average fluorescence lifetime of HSA) ([4]; compound 35 μM): 3.09 ns | α 1 of HSA fluorescence decay ([4]; compound 70 μM): 0.39 | α 2 of HSA fluorescence decay ([4]; compound 70 μM): 0.20 | α 3 of HSA fluorescence decay ([4]; compound 70 μM): 0.41 | τ 1 of HSA fluorescence decay ([4]; compound 70 μM): 3.14 ns | τ 2 of HSA fluorescence decay ([4]; compound 70 μM): 7.03 ns | τ 3 of HSA fluorescence decay ([4]; compound 70 μM): 0.80 ns | τ (average fluorescence lifetime of HSA) ([4]; compound 70 μM): 2.97 ns

C#CCN1C(=O)c2cccc3c(-c4ccc5c(c4)c(-c4nc6ccccc6s4)cn5CC=C)ccc(c23)C1=O [Compound 13, 6-(1-Allyl-3-(benzo[d]thiazol-2-yl)-1H-indol-5-yl)-2-(prop-2-yn-1-yl)-1H-benzo[de]isoquinoline-1,3(2H)-dione]
IC50 [1]: 3.49 ± 0.12 µM | K SV (Stern–Volmer quenching constant) ([2]; 298 K): 2.58 10^6 M^−1 | K q (bimolecular quenching rate constant) ([2]; 298 K): 2.58 10^14 M^−1 s^−1 | n (average number of binding sites) ([2]; 298 K): 1.17 | ΔG of HSA binding ([2]; 298 K): -8.37 kJ/M | Kd ([2]; 298 K): 662 nM | Kd ([2]; 308 K): 2780 nM | K SV (Stern–Volmer quenching constant) ([2]; 318 K): 0.30 10^6 M^−1 | K q (bimolecular quenching rate constant) ([2]; 318 K): 0.30 10^14 M^−1 s^−1 | n (average number of binding sites) ([2]; 318 K): 1.00 | ΔG of HSA binding ([2]; 318 K): -7.49 kJ/M | Kd ([2]; 318 K): 6670 nM | quenching of emission of HSA at 347 nm [2]: 90–95% | ΔH of HSA binding [2]: -21.41 kJ/M | ΔS of HSA binding [2]: −43.76 J M^−1 K^−1 | α 1 of HSA fluorescence decay [3]: 0.41 | α 2 of HSA fluorescence decay [3]: 0.23 | α 3 of HSA fluorescence decay [3]: 0.36 | τ 3 of HSA fluorescence decay [3]: 0.84 ns | τ (average fluorescence lifetime of HSA) [3]: 3.25 ns | τ 1 of HSA fluorescence decay ([4]; compound 7 μM): 3.19 ns | τ 2 of HSA fluorescence decay ([4]; compound 7 μM): 7.17 ns | α 1 of HSA fluorescence decay ([4]; compound 35 μM): 0.39 | α 2 of HSA fluorescence decay ([4]; compound 35 μM): 0.24 | α 3 of HSA fluorescence decay ([4]; compound 35 μM): 0.37 | τ 1 of HSA fluorescence decay ([4]; compound 35 μM): 3.12 ns | τ 2 of HSA fluorescence decay ([4]; compound 35 μM): 6.97 ns | τ 3 of HSA fluorescence decay ([4]; compound 35 μM): 0.85 ns | τ (average fluorescence lifetime of HSA) ([4]; compound 35 μM): 3.19 ns | α 1 of HSA fluorescence decay ([4]; compound 70 μM): 0.39 | α 2 of HSA fluorescence decay ([4]; compound 70 μM): 0.19 | α 3 of HSA fluorescence decay ([4]; compound 70 μM): 0.41 | τ 1 of HSA fluorescence decay ([4]; compound 70 μM): 3.36 ns | τ 2 of HSA fluorescence decay ([4]; compound 70 μM): 7.25 ns | τ 3 of HSA fluorescence decay ([4]; compound 70 μM): 0.86 ns | τ (average fluorescence lifetime of HSA) ([4]; compound 70 μM): 3.08 ns
